Results from article PMC12113347, “Compound 3d Attenuates Metabolic Dysfunction-Associated Steatohepatitis via Peroxisome Proliferator-Activated Receptor Pathway Activation and Inhibition of Inflammatory and Apoptotic Signaling” (Metabolites, 2025).
Like-named read-outs stand apart in the source and are kept apart here.

Key:
[1] = test system: L02 cells; test: ROS assay (DCFH-DA, flow cytometry) in FFA-treated L02 cells; assay type: cell-based, human; settings: FFA-induced L02 cells
Source text: (§1) L02 cells were inoculated in 6-well plates at 1 × 10^5 cells/mL, and after completing the lipid-accumulating cell modeling treatment according to the method described in 2.1, the cells were collected and washed with 1× PBS buffer.
Reactive oxygen species (ROS) assay: ROS production was detected in the collected cells using a DCFH-DA fluorescent probe diluted in serum-free medium, and the stained cells were washed with 1× PBS buffer 3 times and then analyzed by flow cytometry.

[2] = Pharmacokinetics of 3d in male SD rats, gavage; assay type: in vivo; settings: for MRT last: read-out: MRT(0-t) (converted)
Description: The pharmacokinetics of 3d in vivo were evaluated using male SD rats. Following a 12 h fast, the rats were administered 3d (30 mg/kg) via gavage or tail vein injection, respectively, and blood samples were collected within 24 h for analysis of 3d blood concentration via HPLC. The PK parameters were calculated using the DAS 3.0, and oral bioavailability (F) was obtained by the following formula.F = AUCpo × Di.v/AUCi.v × Dpo × 100%(1)

[3] = test system: RAW264.7 cells; test: LPS-induced RAW264.7 cell inflammation model (TNF-α, NO, IL-6 in supernatant); assay type: cell-based
Description: RAW264.7 cells were bought from Guangzhou Huatuo Biological Technology Co., Ltd. (Guangzhou, China). RAW264.7 cells (1 × 10^5 cells/mL) were inoculated in 24-well plates. After 24 h, LPS (1 μg/mL) was added to induce cell inflammation. Subsequently, curcumin (100 μM), fenofibric acid (FA, 100 μM), or 3d (10, 20, 40 80 μM) was added for 24 h. The cell supernatant was collected for analysis of inflammatory factors, including nitric oxide (NO), interleukin-6 (IL-6), and tumor necrosis factor (TNF-α).

[4] = In vitro stability in DMEM medium, simulated gastric fluid and simulated intestinal fluid (HPLC); assay type: in vitro ADME; settings: 40 μM, 37 °C
Description: Elafibranor and 3d (40 μM) were dissolved in DMEM medium, as well as in simulated gastric fluid (SGF) and simulated intestinal fluid (SIF), respectively, at 37 °C. The concentration of the compounds was determined within 24 h by HPLC. The HPLC conditions comprised an ACQUITY UPLC BEH C18 column maintained at 40 °C with a mobile phase consisting of 20% ultrapure water and 80% acetonitrile, with a flow rate of 1 mL/min at 360 nm.

[5] = test system: L02 cells; test: FFA-induced lipid accumulation model in L02 cells (TG and ALT kits, Oil Red O); assay type: cell-based, human; settings: 0.9 mM FFA
Description: Free fatty acids (FFAs, OA:PA = 2:1) were used to induce the lipid model in L02 cells (Guangzhou Huatuo Biological Technology Co., Ltd., Guangzhou, China). The L02 cells (1 × 10^5 cells/mL) were inoculated in 12-well plates. After 24 h, the cells were starved for 12 h and then treated with DMSO or FFAs for 24 h. Subsequently, the cells were exposed to fenofibric acid (100 μM) or 3d (10, 20, 40 μM) for another 24 h.
The cells were collected and lysed using cell lysis solution; the supernatants were subjected to triglycerides (TGs) and alanine aminotransferase (ALT) kit assays. Moreover, following the completion of the treatment, the cells were fixed with 4% paraformaldehyde and stained with an Oil Red O, with the objective of observing the morphology under an inverted microscope.

[6] = test system: L02 cells; test: Mitochondrial membrane potential test (JC-1) in FFA-treated L02 cells; assay type: cell-based, human; settings: FFA-induced depolarization; 3d 20 μM
Description: as §1
Mitochondrial membrane potential (MMP) test: After the cells were co-incubated with FFAs and drugs for 24 h, the remaining medium was discarded and the cells were washed with 1× PBS buffer before being treated with JC-1 probe dye. A laser confocal microscope was used to take photographs, which were quantitatively analyzed using ImageJ software (V. 1.52a, Wayne Rasband National Institutes of Health, Bethesda, MD, USA).

[7] = test system: gut microbiota; test: Gut microbiota composition by 16S rRNA sequencing in MASH mice; assay type: in vivo
Description: Proteome sequencing of liver tissue samples was performed according to the specific requirements of the protocol by Beijing Qinglian Baiao Biotechnology Co., Ltd. (Beijing, China). Mouse fecal samples were collected and frozen in liquid nitrogen and stored at −80 °C.
Total DNA was extracted by QIAamp DNA Stool Mini Kit, homogenized by lysis buffer, digested by proteinase, and purified by a centrifugal column and then passed through NanoDrop and agarose gel electrophoresis for quality control. PCR amplification was performed with primers specific to the V3-V4 region of the bacterial 16S rRNA gene (341F: 5′-CCTAYGGGRBGCASCAG-3′; 806R: 5′-[…]-3′), and the reaction system consisted of 2 × Taq PCR Master Mix, and the program was 95 °C pre-denaturation for […] (95 °C for 30 s, 55 °C for 30 s, 72 °C for 45 s) and extension at 72 °C for 10 min. After purification, bipartite sequencing was performed using the Illumina MiSeq PE300 platform. After QIIME2 quality control, the raw data were clustered into OTUs with 97% similarity, and the species were annotated based on the Silva database to analyze the Alpha/Beta diversity and differential flora.

[8] = male, SD, rat, blood, po, 30 mg/kg, rats, administered orally
[9] = LPSs-induced, RAW264.7 macrophages, p < 0.01

CNc1ccc(C(=O)/C=C/c2cc(C)c(OC(C)(C)C(=O)OC(C)(C)C)c(C)c2)cc1 [3d]
intracellular ROS levels [1]: significant decrease in ROS levels | AUC(0-t) ([2]; SD rats, gavage, 30 mg/kg): 30,236 ng/L*min | AUC(0-∞) ([2]; SD rats, gavage, 30 mg/kg): 34,864 ng/L*min | AUMC(0-t) ([2]; SD rats, gavage, 30 mg/kg): 7,351,242 | AUMC(0-∞) ([2]; SD rats, gavage, 30 mg/kg): 12,023,223 | Cmax ([2]; SD rats, gavage, 30 mg/kg): 0.113 ng/mL | Cz ([2]; SD rats, gavage, 30 mg/kg): 15 ng/L | Tmax ([2]; SD rats, gavage, 30 mg/kg): 2 h | VRT(0-t) ([2]; SD rats, gavage, 30 mg/kg): 31,533 min^2 | VRT(0-∞) ([2]; SD rats, gavage, 30 mg/kg): 107,286 min^2 | Zeta ([2]; SD rats, gavage, 30 mg/kg): 0.003 min⁻¹ | Cmax ([2]; male, SD, rat, blood, po, 30 mg/kg, SD rats, gavage, 30 mg/kg, read-out: Cmax): 0.113 ng/mL | MRT last ([2]; male, SD, rat, blood, po, 30 mg/kg, SD rats, gavage, 30 mg/kg): 4.05 h | half-life [2, 8]: 3.4 h | MRT last [2, 8]: 4 h | Tmax ([2]; male, SD, rat, blood, po, 30 mg/kg, rats, administered orally, read-out: time of peak concentration): 2 h | bioavailability ([2]; male, SD, rat, blood, po, rats, 30 mg/kg gavage vs tail vein injection, read-out: oral bioavailability (F)): 27.9% | MRT inf ([2]; male, rat, blood, po, SD rats, gavage, 30 mg/kg, read-out: MRT(0-∞) (converted)): 5.73 h | levels of each inflammatory factor (TNF-α, NO, IL-6) ([3]; LPS 1 μg/mL, 3d 10, 20, 40, 80 μM, 24 h): significantly reduced | IL-6 reduction [3, 9]: 48% | NO decrease [3, 9]: 51% | TNF-α reduction [3, 9]: 63% | concentration in culture medium (stability) ([4]; DMEM, within 24 h): remained relatively constant | concentration in gastric fluid (stability) ([4]; SGF): decreased significantly after 60 min | concentration in intestinal fluid (stability) ([4]; SIF, within 24 h): remained relatively constant | intracellular lipid accumulation (Oil Red O morphology) [5]: diminished intracellular lipid accumulation | ALT activity ([5]; 3d 10, 20, 40 μM, 24 h): notable reduction | intracellular TG levels ([5]; 3d 10, 20, 40 μM, 24 h): notable reduction | mitochondrial membrane potential [6]: partially restored | Bifidobacterium rise [7]: 1.9 fold | Lactobacillus increase [7]: 2.7 fold | Proteobacteria decrease ([7]; p < 0.05): 68% | abundance of Firmicutes and Actinobacteria ([7]; phylum level): significantly increased | abundance of Proteobacteria and Deferribacteres ([7]; phylum level): significantly reduced and returned to normal levels | Shannon index ([7]; α-diversity): decreased | Simpson index ([7]; α-diversity): increased | community richness, Chao1 and ACE indices ([7]; α-diversity): no significant effect
